{"source": "patent US9629894B2", "about": "“Magnesium-containing oxytocin formulations and methods of use” (Trigemina, Inc., priority 2015, dated 2017)", "key": {"[1]": {"system": "rat model of facial thermal nociception", "test": "Rat model of facial thermal nociception: cheek withdrawal latency to radiant heat after nasal administration", "type": "in vivo", "settings": "for analgesic effect (elevation in latency to withdrawal): 15-300 min", "procedure": "The heat from a projector lamp was focused on the pre-shaved cheek of rats and the intensity was varied to obtain a withdrawal response with a latency of between 6.5 and 8.5 seconds. The intensity applied to achieve such latencies was recorded for each animal. Once stable/acceptable baseline values were obtained, the average latencies for each rat were calculated. After baseline cheek withdrawal latencies were determined for all rats, each rat received a single nasal administration of either normal saline, 15% magnesium chloride in water, or 1% magnesium lactate in water according to the method developed by Frey (Thorne, et al. Neuroscience., 127: 481-496 (2004)). Briefly, rats (under urethane anesthesia) were placed in a supine position with a rolled pad (2×2 gauze) inserted under the dorsal neck to extend the head back toward the supporting surface. The upper surface of the neck was kept horizontal throughout the dosing procedure to maintain the drug solution in the nasal cavity and minimize dripping down the nasopharynx. A 6 μL drop of the respective drug solution was delivered off the tip of a small pipette and presented to the nares on the left side of the rat while occluding the opposite nares. One drop was administered every 2 minutes, alternating between each nares (thus amounting to a four minute interval between doses to the same nares). Each nostril received 4 drops, totaling a combined volume of 48 μL (8 drops of 6 μL each). Drug solutions were coded in order to keep the experimenter blinded as to the substances delivered. Left cheek withdrawal latencies in response to radiant heat stimulation were then measured over the next 3 hours. Withdrawal latencies were measured prior to nasal administration and at 1, 2, and 3 hours post-treatment.\nOne of 4 concentrations of dibasic magnesium citrate (1:1 Mg/citrate) was applied to rats and the effects of these applications on responses to noxious thermal stimulation of the face were assessed as described above. Each rat received a single nasal administration of 3, 6, 10, or 12% magnesium citrate in water (6 rats/group) according to the method described above. Left cheek withdrawal latencies in response to radiant heat stimulation were then measured over the following 300 minutes. Withdrawal latencies were measured prior to nasal administration and at 15, 30, 45, 60, 120, 180, 240, and 300 min post-treatment.\nOne of 3 doses of oxytocin in buffered saline was applied to rats and the effects of these applications on responses to noxious thermal stimulation of the face were assessed as described above. Each rat received a single nasal administration of 1, 4, or 8 μg oxytocin in aqueous solution (6 rats/group) according to the method described above. Left cheek withdrawal latencies in response to radiant heat stimulation were then measured over the following 300 minutes. Withdrawal latencies were measured prior to nasal administration and at 15, 30, 45, 60, 120, 180, 240, and 300 min post-treatment.\nAqueous solutions containing a combination of magnesium citrate at one of 3 concentrations with oxytocin at one of 3 doses were applied nasally in rats and changes in withdrawal response latency were measured as above. Each rat received a single nasal administration of 1, 4, or 8 μg of oxytocin in aqueous solution containing 3, 6, or 12% magnesium citrate according to the method described above. Left cheek withdrawal latencies in response to radiant heat stimulation were then measured over the following 300 minutes. Withdrawal latencies were measured prior to nasal administration and at 15, 30, 45, 60, 120, 180, 240, and 300 min post-treatment.\nDifference scores were generated for each time point after dosing by comparing the respective withdrawal response latency to pre-dosing (baseline) values."}, "[2]": {"system": "head, neck and shoulder pain", "test": "Patient with chronic tension-type headache with head, neck and shoulder pain, oxytocin nasal sprays", "type": "in vivo, human", "text": "A patient with chronic tension-type headache reported having intense pain in their head, neck and shoulders. The patient took 4 sprays of 7.5 IU/spray oxytocin for a dose of 30 units, at which point their headache pain was gone, but the neck and shoulder pain remained. […] Thus, a higher dose was necessary to affect neck and shoulder pain than was necessary to inhibit head pain in the same patient."}, "[3]": {"system": "rat paw inflammation model", "test": "Rat paw inflammation model (complete Freund's adjuvant in forepaw), force withdrawal threshold to mechanical stimulation", "type": "in vivo", "settings": "nasal, FIG. 8", "procedure": "The analgesic effect of nasally administered oxytocin on cervical nerve-associated inflammatory pain was assessed in a rat paw inflammation model (Martin et al., Pain 1999, 82:199-205). Oxytocin was nasally administered at one of three doses (193, 385 or 768 micrograms in 48 microliters) and force withdrawal thresholds in grams were determined following mechanical stimulation of the inflamed area (forepaw), at regular intervals over the next three hours, and compared against those of vehicle (phosphate buffered saline) treated rats. Injection of complete Freund's adjuvant into the left forepaw of rats produced a robust inflammation of that paw as well as a substantial decrease in the force necessary to elicit a withdrawal response (mechanical allodynia)."}, "[4]": {"settings": "4 sprays of 7.5 IU/spray oxytocin, dose of 30 units"}}}
{"compound": "[Cl-].[Cl-].[Mg+2]", "note": "[magnesium chloride]", "values": [{"measurement": "analgesia at 2 and 3 hours after dosing", "setting": "[1]; 15% magnesium chloride in water, nasal, 2 and 3 hours", "result": "analgesia continuing"}, {"measurement": "analgesic effect compared to nasal saline treated rats", "setting": "[1]; 15% magnesium chloride in water, nasal, 1 hour", "result": "strong analgesic effect"}]}
{"compound": "CC(O)C(=O)[O-].CC(O)C(=O)[O-].[Mg+2]", "note": "(centres unmarked) [magnesium lactate]", "values": [{"measurement": "analgesic effect (withdrawal latency)", "setting": "[1]; 1% magnesium lactate in water, nasal, rats", "result": "mild analgesic effect"}, {"measurement": "latencies at the 2 and 3 hour time points", "setting": "[1]; 1% magnesium lactate in water, nasal, rats, 2 and 3 hours", "result": "still substantially elevated"}, {"measurement": "raising response latencies (withdrawal latency to noxious heat)", "setting": "[1]; 1% magnesium lactate in water, single nasal administration 48 μL, rats", "result": "approximately 1.5 s"}]}
{"compound": "CC[C@H](C)[C@@H]1NC(=O)[C@H](Cc2ccc(O)cc2)NC(=O)[C@@H](N)CSSC[C@@H](C(=O)N2CCC[C@H]2C(=O)N[C@@H](CC(C)C)C(=O)NCC(N)=O)NC(=O)[C@H](CC(N)=O)NC(=O)[C@H](CCC(N)=O)NC1=O", "note": "[oxytocin, Cys-Tyr-Ile-Gln-Asn-Cys-Pro-Leu-Gly]", "values": [{"measurement": "headache pain", "setting": "[2]; [4]", "result": "gone"}, {"measurement": "neck and shoulder pain", "setting": "[2]; [4]", "result": "remained"}, {"measurement": "neck and shoulder pain", "setting": "[2]; additional 8-10 sprays, or a total of 60-75 IU", "result": "receded and ceased"}, {"measurement": "reversal of the mechanical allodynia resulting from inflammation", "setting": "[3]; higher 2 doses, 385 or 768 micrograms in 48 microliters", "result": "statistically significant partial reversal"}, {"measurement": "increasing pain thresholds (force withdrawal threshold)", "setting": "[3]; lowest dose, 193 micrograms in 48 microliters", "result": "ineffective"}, {"measurement": "withdrawal latency", "setting": "[1]; 1 μg oxytocin, nasal", "result": "no increase"}, {"measurement": "analgesic effect (elevation in latency to withdrawal)", "setting": "[1]; 1, 4 or 8 μg oxytocin in aqueous solution, nasal, FIG. 3", "result": "clear dose-dependent analgesic effect"}, {"measurement": "latency to withdrawal in response to noxious cheek heating", "setting": "[1]; 4 and 8 μg oxytocin, nasal", "result": "robust increase in latency to withdrawal"}]}
{"compound": "magnesium citrate", "values": [{"measurement": "analgesic effect (elevation in latency to withdrawal)", "setting": "[1]; 3, 6, 10 or 12% magnesium citrate in water, nasal, FIG. 2", "result": "clear dose-dependent analgesic effect"}]}
